# Results: publication PMC7326275 (PLoS Pathogens, 2020)
# Values joined by “and” are separate entries in the source; they are usually repeats but may differ in a detail not shown here. Equal values may be shown once. Read-outs that look alike come from different tables or passages of the source. Marks after values point to notes of the source that are not given here.
# Assays:
# [1] = system: H1N1 virus (A/Mississippi/3/2001); format: in vivo
# [2] = system: H1N1pdm09 virus (A/Perth/265/2009); format: in vivo
# [3] = system: H3N2 virus (A/Fukui/20/2004); format: in vivo
# [4] = system: B virus (B/Minnesota/23/2015); format: in vivo
# H1N1pdm09 virus = format: in vivo
# [5] = system: nine different influenza viruses; assay: animal or person; format: in vivo; details: Mustela putorius, estimated from non-linear regression model, ferrets
# [6] = system: influenza NA protein (nine different influenza viruses); assay: Fluorometric NA inhibition assay, summary over viruses
# [7] = B, OST dosed ferrets, maximum loss from baseline
smiles,measurement,setting,value
"CCOC(=O)C1=C[C@@H](OC(CC)CC)[C@H](NC(C)=O)[C@@H](N)C1 [OST, oseltamivir]",Total Score (clinical signs),"[1]; H1N1, OST dosed ferrets",3
same,Temperature clinical score,"[1]; H1N1, OST dosed ferrets, maximum increase from baseline",1 (1.1–1.5)
same,Activity loss clinical score,"[1]; H1N1, OST dosed ferrets, maximum loss from baseline",1 (21–40)
same,Nasal inflammation Cell score,"[1]; H1N1, OST dosed ferrets, nasal wash, maximum cell count",1 (1 to 2 x10^6)
same,Nasal inflammation Protein score,"[1]; H1N1, OST dosed ferrets, nasal wash, maximum protein concentration",0 (<500)
same,difference in %AUC for weight (OST vs placebo),"[1]; H1N1, ferrets",2.5%
same,Duration of Shedding,"[1]; H1N1, ferrets, OST 5 mg/kg twice daily",0.0 ± 0.0 days
same,"AUC (total area under the viral shedding curve, raw data)","[1]; H1N1, ferrets, OST 5 mg/kg twice daily, mean ± SD",0.0 ± 0.0
same,difference in %AUC for cell count (OST vs placebo),"[1]; H1N1, ferrets, nasal wash",67%
same,difference in %AUC for protein concentration (OST vs placebo),"[1]; H1N1, ferrets, nasal wash",74%
same,% Ferrets Infected,[1]; in vivo,0 (0/4) %
same,Weight loss clinical score,[1]; in vivo,0
same,activity levels of OST dosed ferrets,[1]; in vivo,fluctuated around pre-exposure baseline levels
same,ferrets infected (number infected/number exposed),[1]; in vivo,0/4
same,Total Score (clinical signs),"[2]; H1N1pdm09, OST dosed ferrets",6
same,Temperature clinical score,"[2]; H1N1pdm09, OST dosed ferrets, maximum increase from baseline",2 (1.5–2.0)
same,Activity loss clinical score,"[2]; H1N1pdm09, OST dosed ferrets, maximum loss from baseline",1 (21–40)
same,Nasal inflammation Cell score,"[2]; H1N1pdm09, OST dosed ferrets, nasal wash, maximum cell count",1 (1 to 2 x10^6)
same,Nasal inflammation Protein score,"[2]; H1N1pdm09, OST dosed ferrets, nasal wash, maximum protein concentration",2 (1001–1500)
same,difference in %AUC for activity levels (OST vs placebo),"[2]; H1N1pdm09, ferrets",53%
same,Duration of Shedding,"[2]; H1N1pdm09, ferrets, OST 5 mg/kg twice daily",3.5 ± 0.7 days
same,"AUC (total area under the viral shedding curve, raw data)","[2]; H1N1pdm09, ferrets, OST 5 mg/kg twice daily, mean ± SD",9.3 ± 12.7
same,difference in %AUC for protein concentration (OST vs placebo),"[2]; H1N1pdm09, ferrets, nasal wash",56%
same,% Ferrets Infected,[2]; in vivo,50% and 50 (2/4) %
same,Peak Viral Titre,[2]; in vivo,4.2 ± 0.9 Log10 TCID50/ml
same,Weight loss clinical score,[2]; in vivo,0
same,difference in %AUC for weight change (OST vs placebo),[2]; in vivo,4.9%
same,Total Score (clinical signs),"[3]; H3N2, OST dosed ferrets",1
same,Temperature clinical score,"[3]; H3N2, OST dosed ferrets, maximum increase from baseline",0 (<1)
same,Activity loss clinical score,"[3]; H3N2, OST dosed ferrets, maximum loss from baseline",1 (21–40)
same,Nasal inflammation Cell score,"[3]; H3N2, OST dosed ferrets, nasal wash, maximum cell count",0 (<1X10^6)
same,Nasal inflammation Protein score,"[3]; H3N2, OST dosed ferrets, nasal wash, maximum protein concentration",0 (<500)
same,Duration of Shedding,"[3]; H3N2, ferrets, OST 5 mg/kg twice daily",2.0 ± 0.8 days
same,"AUC (total area under the viral shedding curve, raw data)","[3]; H3N2, ferrets, OST 5 mg/kg twice daily, mean ± SD",3.0 ± 3.7
same,% Ferrets Infected,[3]; in vivo,50 (4/8) %
same,Peak Viral Titre,[3]; in vivo,3.0 ± 0.8 Log10 TCID50/ml
same,Weight loss clinical score,[3]; in vivo,0
same,ferrets prevented from shedding infectious virus,[3]; in vivo,50%
same,reduction of %AUC for cell counts (OST vs placebo),[3]; in vivo,69.2%
same,reduction of %AUC for protein concentration (OST vs placebo),[3]; in vivo,52.4%
same,Total Score (clinical signs),"[4]; B, OST dosed ferrets",3
same,Temperature clinical score,"[4]; B, OST dosed ferrets, maximum increase from baseline",0 (<1)
same,Activity loss clinical score,[4]; [7],1 (21–40)
same,Weight loss clinical score,[4]; [7],0
same,Nasal inflammation Cell score,"[4]; B, OST dosed ferrets, nasal wash, maximum cell count",1 (1 to 2 x10^6)
same,Nasal inflammation Protein score,"[4]; B, OST dosed ferrets, nasal wash, maximum protein concentration",1 (500–1000)
same,% Ferrets Infected,"[4]; B, ferrets, OST 5 mg/kg orally twice daily",100 (4/4) %
same,Duration of Shedding,"[4]; B, ferrets, OST 5 mg/kg twice daily",5.5 ± 0.6 days
same,"AUC (total area under the viral shedding curve, raw data)","[4]; B, ferrets, OST 5 mg/kg twice daily, mean ± SD",12.9 ± 1.9
same,Peak Viral Titre,[4]; in vivo,3.7 ± 0.4 Log10 TCID50/ml
same,"body weight or temperature, OST- vs placebo-treated animals","H1N1pdm09 virus; H1N1pdm09, macaques, OST 3 mg/kg orally",no significant differences
same,viral titre lower in tracheal lavages of OST dosed macaques compared to placebo,"H1N1pdm09 virus; cynomolgus monkey, in vivo",1.9 logs
same,"viral titres in nasal wash and tracheal lavages, OST vs placebo","H1N1pdm09 virus; cynomolgus monkey, in vivo",not significantly different
same,IC50,[5]; read-out: IC50 corresponding to a 50% reduction in OST efficacy against viral shedding,14.6 nM
same,IC50,[5]; read-out: IC50 corresponding to a 90% loss in oseltamivir efficacy against viral shedding,68.2 nM
same,IC50,"[6]; read-out: OST IC50 values, range over nine different influenza viruses, nine viruses of the ferret study",0.2 to 414 nM
same,IC50,"[6]; read-out: normal IC50 values of wild-type influenza A viruses, wild-type influenza A viruses",~1 nM
